# pIC50: −log10 of the molar value. Where a name gives a salt, the structure may show the parent alone.
# Test system: Plasmodium falciparum 3D7 strain
# Assay: P. falciparum 3D7 asexual blood stage assay (SYBR green readout)
# Assay type: cell-based
# Settings: Plasmodium falciparum, 3D7, Erythrocyte, 72 h
# Procedure: Asexual Blood Stage Assay
# The assay used to measure the effect of test compounds on a bloodstream stage of Plasmodium falciparum: 3D7 strain employs SYBR green as the readout. This is a dye that binds to double stranded deoxyribonucleic acid (DNA) with a resulting increase in fluorescence, allowing detection of P. falciparum DNA in infected erythrocytes, and thereby providing a measure of parasite growth and propagation.
# P. falciparum Culture Maintenance
# Erythrocytes (A+ blood) were prepared for both parasite culture and assay by washing 4 times with incomplete media (15.9 g RPMI 1640 (25 mM HEPES, L-glutamine), 1 g NaHCO3, 2 g glucose, 400 μL gentacin (500 mg/mL), 2 mL hypoxanthine solution (13.6 g/L in 0.1M NaOH pH 7.3) in 1 litre of media). The cells were centrifuged at 1800 g for 5 minutes, before decanting the supernatant and re-suspending in fresh incomplete media. On the final wash, the cells were re-suspended in complete media (incomplete media with 5 g/L AlbumaxII), and centrifuged at 1800 g for 3 minutes. This cell sediment was treated as 100% haematocrit.
# P. falciparum 3D7 was cultured in erythrocytes at 5% haematocrit in complete media at 37° C. (1% O2, 3% CO2, balance N2). Cultures were split on a weekly basis to achieve a 1% parasitaemia in erythrocites at 5% haematocrit in fresh media. Culture media is replaced by fresh media every other day (2 times during the week).
# On day 1, test compounds were added to assay plates using Echo dispensing technology ([…] and 20 points titration). 50 nL of each compound dilution was added to 50 μL of culture (5% haematocrit, 0.5% parasitaemia) and incubated for 72 h at 37° C. (1% O2, 3% CO2, balance N2). Final concentrations of test compounds ranged from 50,000 nM to 15 nM, in […].
# On day 4, 10 μL SYBR green (Invitrogen S7563 supplied as 10,000× concentrate in DMSO) pre-diluted to 3× concentrate with Lysis buffer (20 mM Tris pH 7.9, 5% EDTA, 0.16% w/v, 1.6% TX100 v/v) was added to the cultures and incubated in the dark, overnight, at room temperature.
# On day 5, fluorescent signal was measured using a BioTek plate reader (excitation 485 nm, emission 528 nm). All data were processed using IDBS ActivityBase. Raw data were converted into percent inhibition through linear regression by setting the high inhibition control (mefloquine) as 100% and the no inhibition control (DMSO) as 0%. Quality control criteria for passing plates were as follows: Z′>0.5, S:B>3, 30% CV(no inhibition control)<15. The formula used to calculate Z′ is: […]
# All EC50 curve fitting was undertaken using the following bi-phasic two site dose response using XLfit model 300 (IDBS):
# where A=100 minus the top of the upper curve 1 and the bottom of lower curve; B=Hill slope; log(C)=IC50 concentration at lower site; log(D)=IC50 concentration at upper site; x=inhibitor concentration; and y=% inhibition.
row,SMILES,pIC50
1,"C[C@@H]1C[C@H](N2C(=N)N[C@](C)(c3cccc(NC(=O)c4cnccc4F)c3Cl)CC2=O)CCO1 (relative stereo) [Example 96, N-(2-Chloro-3-{(4S)-2-imino-4-methyl-1-[(2R*,4R*)-2-methyl-tetrahydropyran-4-yl]-6-oxo-hexahydropyrimidin-4-yl}phenyl)-4-fluoropyridine-3-carboxamide hydrochloride]",6.25
2,"C[C@@H]1C[C@H](N2C(=N)N[C@](C)(c3cccc(NC(=O)c4ncccc4C(F)(F)F)c3Cl)CC2=O)CCO1 (relative stereo) [Example 49, N-(2-Chloro-3-{(4S)-2-imino-4-methyl-1-[(2R*,4R*)-2-methyl-tetrahydropyran-4-yl]-6-oxo-hexahydropyrimidin-4-yl]phenyl)-3-(trifluoromethyl)pyridine-2-carboxamide trifluoroacetic acid salt]",7.77
3,"C[C@@H]1CC(N2C(=N)N[C@](C)(c3cccc(NC(=O)c4cc(Cl)ccc4OC(F)F)c3Cl)CC2=O)CCO1 (relative stereo) [Example 84, 5-Chloro-N-(2-chloro-3-{(4S)-2-imino-4-methyl-1-[(2R*,4R*)-2-methyltetrahydropyran-4-yl]-6-oxo-hexahydropyrimidin-4-yl]phenyl)-2-(difluoromethoxy)benzamide trifluoroacetic acid salt]",7.43
4,"C[C@@H]1C[C@H](N2C(=N)N[C@](C)(c3cccc(NC(=O)c4cccc(Cl)c4F)c3Cl)CC2=O)CCO1 (relative stereo) [Example 97, 3-Chloro-N-(2-chloro-3-{(4S)-2-imino-4-methyl-1-[(2R* ,4R*)-2-methyltetrahydropyran-4-yl]-6-oxo-hexahydropyrimidin-4-yl]phenyl)-2-fluorobenzamide hydrochloride]",7.68
5,"C[C@@H]1C[C@H](N2C(=N)N[C@](C)(c3cccc(NC(=O)c4ccc(C(F)(F)F)nn4)c3Cl)CC2=O)CCO1 (relative stereo) [Example 59, N-(2-Chloro-3-{(4S)-2-imino-4-methyl-1-[(2R*,4R*)-2-methyl-tetrahydropyran-4-yl]-6-oxo-hexahydropyrimidin-4-yl]phenyl)-6-(trifluoromethyl)pyridazine-3-carboxamide hydrochloride]",6.94
6,"C[C@@H]1C[C@H](N2C(=N)N[C@](C)(c3cccc(NC(=O)c4nc5ccccc5nc4C(F)(F)F)c3Cl)CC2=O)CCO1 (relative stereo) [Example 88, N-(2-Chloro-3-{(4S)-2-imino-4-methyl-1-[(2R*,4R*)-2-methyl-tetrahydropyran-4-yl]-6-oxo-hexahydropyrimidin-4-yl]phenyl)-3-(trifluoromethyl)quinoxaline-2-carboxamide trifluoroacetic acid salt]",7.34
7,"C[C@@H]1C[C@H](N2C(=N)N[C@](C)(c3cccc(NC(=O)c4cncc(F)c4)c3Cl)CC2=O)CCO1 (relative stereo) [Example 40, N-(2-Chloro-3-{(4S)-2-imino-4-methyl-1-[(2R*,4R*)-2-methyl-tetrahydropyran-4-yl]-6-oxo-hexahydropyrimidin-4-yl]phenyl)-5-fluoropyridine-3-carboxamide trifluoroacetic acid salt]",7.47
8,"C[C@@H]1C[C@H](N2C(=N)N[C@](C)(c3cccc(NC(=O)c4ccc(OCC(F)(F)F)nc4)c3Cl)CC2=O)CCO1 (relative stereo) [Example 58, N-(2-Chloro-3-{(4S)-2-imino-4-methyl-1-[(2R*,4R*)-2-methyl-tetrahydropyran-4-yl]-6-oxo-hexahydropyrimidin-4-yl]phenyl)-6-(2,2,2-trifluoroethoxy)pyridine-3-carboxamide hydrochloride]",6.36
9,"C[C@@H]1C[C@H](N2C(=N)N[C@](C)(c3cccc(NC(=O)c4ccc(Cl)c(C#N)c4)c3Cl)CC2=O)CCO1 (relative stereo) [Example 117, 4-Chloro-N-(2-chloro-3-{(4S)-2-imino-4-methyl-1-[(2R*,4R*)-2-methyltetrahydropyran-4-yl]-6-oxo-hexahydropyrimidin-4-yl}phenyl)-3-cyanobenzamide trifluoroacetic acid salt]",7.77
10,"C[C@@H]1C[C@H](N2C(=N)N[C@](C)(c3cccc(NC(=O)c4cccnc4C4CC4)c3Cl)CC2=O)CCO1 (relative stereo) [Example 57, N-(2-Chloro-3-{(4S)-2-imino-4-methyl-1-[(2R*,4R*)-2-methyl-tetrahydropyran-4-yl]-6-oxo-hexahydropyrimidin-4-yl]phenyl)-2-cyclopropylpyridine-3-carboxamide hydrochloride]",6.32
11,"CC#Cc1cccc(C(=O)Nc2cccc([C@]3(C)CC(=O)N([C@@H]4CCO[C@H](C)C4)C(=N)N3)c2Cl)c1 (relative stereo) [Example 109, N-(2-Chloro-3-{(4S)-2-imino-4-methyl-1-[(2R*,4R*)-2-methyl-tetrahydropyran-4-yl]-6-oxo-hexahydropyrimidin-4-yl}phenyl)-3-(prop-1-ynyl)benzamide hydrochloride]",7.64
12,"C[C@@H]1C[C@H](N2C(=N)N[C@](C)(c3cccc(NC(=O)c4ncc(F)cc4F)c3Cl)CC2=O)CCO1 (relative stereo) [Example 100, N-(2-Chloro-3-{(4S)-2-imino-4-methyl-1-[(2R*,4R*)-2-methyl-tetrahydropyran-4-yl]-6-oxo-hexahydropyrimidin-4-yl}phenyl)-3,5-difluoropyridine-2-carboxamide hydrochloride]",7.48
13,"C[C@@H]1C[C@H](N2C(=N)N[C@](C)(c3cccc(NC(=O)c4cnc5cccnc5c4)c3Cl)CC2=O)CCO1 (relative stereo) [Example 52, N-(2-Chloro-3-{(4S)-2-imino-4-methyl-1-[(2R*,4R*)-2-methyl-tetrahydropyran-4-yl]-6-oxo-hexahydropyrimidin-4-yl}phenyl)-1,5-naphthyridine-3-carboxamide trifluoroacetic acid salt]",6.94
14,"COc1c(C#N)cccc1C(=O)Nc1cccc([C@]2(C)CC(=O)N([C@@H]3CCO[C@H](C)C3)C(=N)N2)c1Cl (relative stereo) [Example 107, N-(2-Chloro-3-{(4S)-2-imino-4-methyl-1-[(2R*,4R*)-2-methyl-tetrahydropyran-4-yl]-6-oxo-hexahydropyrimidin-4-yl}phenyl)-3-cyano-2-methoxybenzamide hydrochloride]",7.57
15,"C[C@@H]1C[C@H](N2C(=N)N[C@](C)(c3cccc(NC(=O)c4cccc(C#N)c4)c3Cl)CC2=O)CCO1 (relative stereo) [Example 20, N-(2-Chloro-3-{(4S)-2-imino-4-methyl-1-[(2R*,4R*)-2-methyl-tetrahydropyran-4-yl]-6-oxo-hexahydropyrimidin-4-yl}phenyl)-3-cyanobenzamide hydrochloride]",8.10
16,"C[C@@H]1C[C@H](N2C(=N)N[C@](C)(c3cccc(NC(=O)c4cc(Cl)c(F)cc4F)c3Cl)CC2=O)CCO1 (relative stereo) [Example 69, 5-Chloro-N-(2-chloro-3-{(4S)-2-imino-4-methyl-1-[(2R*,4R*)-2-methyltetrahydropyran-4-yl]-6-oxo-hexahydropyrimidin-4-yl}phenyl)-2,4-difluorobenzamide hydrochloride]",7.60
17,"C[C@@H]1C[C@H](N2C(=N)N[C@](C)(c3cccc(NC(=O)c4cccc(C#N)c4)c3Cl)CC2=O)CCC1(F)F (relative stereo) [Example 25, N-(2-Chloro-3-{(4S)-1-[(1R*,3R*)-4,4-difluoro-3-methylcyclohexyl]-2-imino-4-methyl-6-oxohexahydro-pyrimidin-4-yl]phenyl)-3-cyano-benzamide trifluoroacetic acid salt]",7.06

# Same assay, conditions: Plasmodium falciparum, Erythrocyte; P. falciparum 3D7 in human erythrocytes, 72 h incubation, SYBR green fluorescence; read-out: IC50
row,SMILES,pIC50
1,"C[C@@H]1C[C@H](N2C(=N)N[C@](C)(c3cccc(NC(=O)c4ncn5ccccc45)c3Cl)CC2=O)CCO1 (relative stereo) [Example 60, N-(2-Chloro-3-{(4S)-2-imino-4-methyl-1-[(2,R*,4R*)-2-methyl-tetrahydropyran-4-yl]-6-oxo-hexahydropyrimidin-4-yl}phenyl)-imidazo[1,5-a]pyridine-1-carboxamide hydrochloride]",6.91

# Source: patent US20220289685A1, “ANTIMALARIAL HEXAHYDROPYRIMIDINE ANALOGUES” (UCB BIOPHARMA SRL, priority 2019, published 2022)
